Experimental data: PMC9323733, “Efficacy of Vafidemstat in Experimental Autoimmune Encephalomyelitis Highlights the KDM1A/RCOR1/HDAC Epigenetic Axis in Multiple Sclerosis” (Pharmaceutics, 2022)
“Also recorded” adds a separate entry of the source.

Assays:
[1] = system: spleen cells isolated from mice suffering chronic EAE; experiment: Encephalitogenic T-cell response in vitro, spleen cells of EAE mice re-stimulated with MOG35–55; format: cell-based, mouse; conditions: 0.5 µM ORY-2001, MOG35–55 15 µM
Description: Spleen and draining lymph node (DLN) cells (10^6/mL) collected from EAE mice were stimulated in complete medium (RPMI 1640 containing 10% FBS, 50 µM 2-ME, 2 mM L-glutamine, 100 U/mL penicillin, and 100 µg/mL streptomycin) with 15 µM MOG35–55. After 48 h, cytokine (IL-4, TNF-alpha, IFN-gamma) and chemokine (IP-10 and MCP1) contents in culture supernatants were determined by sandwich ELISAs using capture/biotinylated detection Abs according to the manufacturer’s recommendations. The antibodies used are indicated in Supplementary Materials Table S4. Cell proliferation was evaluated after 72 h by adding 2.5 µCi/mL tritiated-thymidine during the last 8 h of culture and determining cpm incorporation in a Microbeta counter. We used T cell activation with an anti-CD3 […] antibody (1 µg/mL) or ConA (2.5 µg/mL) as controls of unspecific polyclonal stimulation.
Data are the mean ± SEM with dots representing individual values of biologically independent animals.

[2] = Drug exposure in male and female animals; format: in vivo; conditions: mice and rats
Text: Sex and Gender in this Research
Multiple sclerosis (MS) is more prevalent in women than men, but male patients develop more severe clinical symptoms and deteriorate faster than female patients. With respect to the animal models for MS used in this research, t he following aspects were considered: […]
and rats, which were not deemed relevant for this research. Previous efficacy studies in the […]
animals usedand perfo rm separate studies for male an female mice in MS models.
MOG35-55 induced EAE in C57BL/6 mice:
No differences have been observed in disease incidence or severity between sexes in MOG35-55 induced EAE in C57BL/6 mice in a study by Papenfuss et al. (J Neuroimmunol, 2004;150(1-2):59-69, therefore it was not deemed justified to increase the number of animals used in the studies to study males and females independently in the experiments reported in this […]
Although a higher incidence and severity has been reported for male than female SJL mice in the TMEV model (Alley et al. Exp Neurol, 2003 Mar;180(1):14-24), females are used in mo st studies because the strain of SJL male mice are very aggressive and display a high level of dominance and inflict wounds to their housemates. […]
Hypothetical sexual dimorphism in spinal cord organotypic cultures and chr onic excitotoxicity treatment derived from 8 day old Sprague-Dawley male or female pups was not assessed. […]

recombinant HDAC2 = target: T1, recombinant HDAC2 (Homo sapiens, UniProt Q92769); experiment: HDAC2 fluorimetric biochemical assay
T1 construct: purchased BPS Bioscience 50002
Description: HDAC2 activity was determined using a fluorimetric assay at BPS Bioscience (San Diego, CA, USA). Compounds were dissolved in DMSO (Sigma), and serial dilutions were further diluted in HDAC assay buffer (BPS). These working solutions were incubated in duplicate at room temperature for 3 h in a mixture containing HDAC assay buffer, BSA (Fisher Scientific), and recombinant HDAC2 (BPS). The enzymatic reactions were initiated by the addition of a fluorogenic, acetylated peptide substrate (BPS) and proceeded for 30 min at 37 °C. Then, HDAC assay developer (BPS) was added, and after further incubation at room temperature, fluorescence intensity was measured at an excitation of 360 nm and an emission of 460 nm using a Tecan Infinite M1000 microplate reader. Trichostatin A (TSA, Selleckchem, Houston, TX, USA) was used as a reference inhibitor.
For the biochemical assays, the fluorescence signal relative to the background (assay mixture in the absence of the enzyme) was subtracted from each fluorescent intensity data. Activity in the presence of compound was expressed as a percentage of fluorescence intensity in the absence of the compound.

T1 sequence (Q92769 whole entry): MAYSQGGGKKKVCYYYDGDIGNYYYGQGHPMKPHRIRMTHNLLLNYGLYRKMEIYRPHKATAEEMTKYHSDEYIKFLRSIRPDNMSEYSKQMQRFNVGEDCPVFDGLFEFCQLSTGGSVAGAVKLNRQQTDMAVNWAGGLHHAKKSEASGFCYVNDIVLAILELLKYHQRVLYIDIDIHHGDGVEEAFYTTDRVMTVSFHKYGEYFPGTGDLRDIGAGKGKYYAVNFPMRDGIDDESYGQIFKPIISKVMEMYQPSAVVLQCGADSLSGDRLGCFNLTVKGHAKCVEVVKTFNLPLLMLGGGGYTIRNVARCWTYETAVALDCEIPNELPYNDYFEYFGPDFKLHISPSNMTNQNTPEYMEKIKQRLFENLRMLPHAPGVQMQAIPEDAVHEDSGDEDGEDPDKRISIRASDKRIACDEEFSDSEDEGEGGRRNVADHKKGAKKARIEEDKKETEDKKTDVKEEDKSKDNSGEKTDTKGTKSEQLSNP

Row | SMILES | IL-10 and IL-4 levels [1] | MOG35–55-induced proliferation and cytokine production [1] | difference of exposure between male and female animals [2] | impact on recombinant HDAC2 activity (recombinant HDAC2)
1 | Nc1nnc(CN[C@@H]2C[C@H]2c2ccc(OCc3ccccc3)cc2)o1 [ORY-2001] | increasing the levels of the anti-inflammatory mediators IL-10 and IL-4 | deactivated the MOG35–55 -induced proliferation and cytokine production in vitro | Minor differences | –
2 | CCCCCCCCc1ccc(CCC(N)(CO)CO)cc1 [FTY720, Fingolimod, reference compound] | – | – | – | did not inhibit HDAC; also recorded: unable to confirm the previous studies reporting that FTY720 or FTY720-P had any significant impact
